The source of these data is patent publication US8506926B2, “[18F]-furanosylpurine derivatives and uses thereof” (priority 2003, dated 2013).

SMILES strings stand for the structures.

In series [1] the test system is human colon tumor xenografts. The settings on record: Carson; Takahashi; cited from earlier work.
The nature of series [2]: Blood clearance after intravenous injection. Format: in vivo, athymic nude mice. As to conditions: blood samples 1-120 minutes after i.v. injection. The protocol:
Activity injected into each mouse was measured in a dose calibrator (Capintec). […] Activity in each blood sample was measured by a gamma counter, standardized for injected dose, and % injected dose per gram was calculated. Mean % injected dose per gram was plotted against time to obtain the blood clearance curve for each compound. Animals were anesthetized with Nembutal (40 mg/kg) and sacrificed at 2 hours post-injection. All organs including tumor were separated and weighed. Radioactivity in each organ was measured using a gamma counter. For each mouse, radioactivity uptake was expressed as % injected dose per gram, and as ratio of organ to blood uptake.

Series [3] is described as follows: Micro-PET imaging studies. Format: in vivo. As to conditions: for micro-PET image findings: 30 minutes, 1 hour and 2 hours post-injection; for wash out of activity with time (micro-PET): up to 2 hours post-injection. The protocol:
PET imaging was performed using a Micro-PET scanner (Concorde Microsystems, Inc.), with 120 transaxial planes and spatial resolution of 2.0 mm, at 30 minutes, 1 hour and 2 hours post-injection. Images were reconstructed using Ordered Subset Expectation Maximization (OSEM) algorithm.

In series [4] the target is T1, herpes simplex virus thymidine kinase (HSV-tk) (Human herpesvirus 1, UniProt P0DTH5).
T1 construct: expressed in transfected cells
Briefly: Tumor uptake in HSV-tk transduced versus wild type tumors on the same animal. Type of series: in vivo. The settings on record: tumor uptake in transduced and wild type cells comparable.

For series [5] the following is noted: mouse, in vivo.
For series [6] the following is noted: cited from earlier work.

T1 sequence (P0DTH5 whole entry): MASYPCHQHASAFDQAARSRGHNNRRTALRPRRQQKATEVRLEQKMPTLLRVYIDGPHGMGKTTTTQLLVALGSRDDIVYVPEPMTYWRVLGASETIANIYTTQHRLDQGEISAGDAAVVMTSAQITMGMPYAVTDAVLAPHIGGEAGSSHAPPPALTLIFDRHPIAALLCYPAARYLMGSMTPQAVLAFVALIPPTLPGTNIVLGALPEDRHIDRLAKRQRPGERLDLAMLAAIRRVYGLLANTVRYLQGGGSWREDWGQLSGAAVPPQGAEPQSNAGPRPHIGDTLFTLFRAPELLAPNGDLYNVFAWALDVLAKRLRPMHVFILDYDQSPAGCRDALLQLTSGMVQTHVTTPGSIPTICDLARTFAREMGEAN

Turning to `Nc1nc(Cl)nc2c1ncn2[C@@H]1O[C@H](CO)[C@@H](O)[C@@H]1F` [2′-deoxy-2′-fluoro-2-chloro-9-β-D-arabinofuranosyladenine], the “activity against human colon tumor xenografts” value in series [1] is recorded as “active”.

Turning to `Nc1ncnc2c1ncn2[C@@H]1O[C@H](CO)[C@@H](O)[C@@H]1[18F]` [[^18F]-FAA, 2′-deoxy-2′-[^18F]-fluoro-9-β-D-arabinofuranosyladenine], the blood clearance pattern result in series [2] is “clear rapidly from the blood initially, then slow down after 20 minutes post-injection”. In series [3], the micro-PET image findings result is “high uptake in spleen” and the “wash out of activity with time (micro-PET)” value is “wash out of activity with time was minimal”. Also, the “substrate for HSV-tk” value in series [4] was “not a substrate for HSV-tk”. In addition, in series [5], the Uptake in kidney is on record as 3.5%, the Uptake in liver came out at 2.4%, the “tissue of highest uptake” value is listed as “spleen” and the “tumor uptake compared to the background activity” value was “more than 3 fold”. Moreover, the “uptake in tumors compared to blood” value in series [5] is given as 3.3 fold.

For `Nc1ncnc2c1ncn2[C@@H]1O[C@H](CO)[C@H]([18F])[C@H]1O` [[^18F]-FXA, 3′-deoxy-3′-[^18F]-fluoro-9-β-D-xylofuranosyladenine], the blood clearance pattern result in series [2] is given as “clear rapidly from the blood initially, then slow down after 20 minutes post-injection”. Further, in series [3], the micro-PET image findings result is reported as “activity is in the heart” and the “wash out of activity with time (micro-PET)” value is “did not wash out in 2 hours post-injection”. Moreover, in series [5], the “tissue of highest uptake” value is listed as “heart” and the tumor/blood ratio result was “less than 1”.

Take `Nc1nc(=O)n([C@@H]2O[C@H](CO)[C@@H](O)[C@@H]2F)cc1[125I]` [[^125I] labeled FIAC, [^125I]-2′-fluoro-5-iodo-1-β-D-arabinofuranosylcytosine]: in series [6], the deiodination in vivo result is on record as “extensive deiodination in vivo”.
